In patent US11931466B2, “Process for the preparation of drug loaded microparticles” (FERRING B.V., priority 2015, dated 2024):
Values after ≈ are worked out from the molar mass of the structure shown. Where a name gives a salt, the structure may show the parent alone.

Columns and labels:
physchem = conditions: organic solvent or mixture
[1] = 20° C.; cited from earlier work

| Compound | solubility (physchem; 20 °C) | also measured |
| --- | --- | --- |
| Cc1nc2n(c(=O)c1CCN1CCC(c3noc4cc(F)ccc34)CC1)CCCC2 [Risperidone] | 500 mg/mL (≈ 1220 mM) | – |
| Cc1nc2n(c(=O)c1CCN1CCC(c3noc4cc(F)ccc34)CC1)CCCC2O (stereo not shown) [Paliperidone] | – | solubility (physchem; 60 °C): 233 mg/mL (≈ 546 mM) |
| glycofurol | – | solubility in water [1]: soluble |
| O=C1CC[C@@]2(O)[C@H]3Cc4ccc(O)c5c4[C@@]2(CCN3CC2CC2)[C@H]1O5 [Naltrexone hydrochloride] | – | solubility (physchem; benzyl alcohol, 20 °C): 800 mg/mL |
| CNCC[C@H](Oc1cccc2ccccc12)c1cccs1 [Duloxetine hydrochloride] | 400 mg/mL | – |
| CCN(C)C(=O)Oc1cccc([C@H](C)N(C)C)c1 [Rivastigmine tartrate] | 200 mg/mL | – |

Second part, led by results:

| solubility (physchem; 20 °C) | Compound | also measured |
| --- | --- | --- |
| 130 mg/mL | CC12CC3CC(C)(C1)CC(N)(C3)C2 [Memantine hydrochloride] | – |
| 110 mg/mL (≈ 293 mM) | O=C(CCCN1CCC(O)(c2ccc(Cl)cc2)CC1)c1ccc(F)cc1 [Haloperidol] | – |
| 200 mg/mL (≈ 469 mM) | COc1cc(C(C)=O)ccc1OCCCN1CCC(c2noc3cc(F)ccc23)CC1 [Iloperidone] | – |
| 400 mg/mL (≈ 892 mM) | O=C1CCc2ccc(OCCCCN3CCN(c4cccc(Cl)c4Cl)CC3)cc2N1 [Aripiprazole] | – |
